According to patent US7763429B2, “Compound containing farnesyl diphosphate for modulating TRPV3 function and use thereof” (Korea University Industry and Academic Collaboration …, priority 2008, dated 2010):

Columns and labels:
mice = experiment: Acute hind paw licking/flicking behaviors after CFA inflammatory sensitization; type: in vivo; conditions: CFA-injected right hind paw, FPP injected into hind paw, 20 minutes
Protocol: Inflammatory sensitization by FPP was investigated. Particularly, 10 μl of CFA (complete Freund's adjuvant; Sigma Aldrich, USA) was injected to the right hind paws of mice 24 hours before the FPP injection. Before the experiment, the mice were adapted for one hour to the experimental environment. 10 μl of vehicle (saline containing 3% DMSO and 0.5% Tween 80) alone or 10 μl of vehicle containing FPP (3 mM) was injected to the right hind paws of the mice. The time spent for the hind paw licking/flicking behaviors in mice were measured according to the method of Bandell M, et al. (Neuron 41:849-857, 2004) and Moqrich A, et al. (Science 307:1468-1472, 2005), for 20 minutes. Control: not-treated; Experimental group 1.20 μl of CFA+300 μM of FPP PBS solution (black circle); Experimental group 2.20 μl of CFA (white circle).

rTRPV4 = target: T1, rTRPV4 (Rattus norvegicus, UniProt Q9ERZ8); experiment: Fluo-3 calcium imaging of TRPV4 transfected HEK293T cells; type: cell-based; conditions: 1 μM of FPP
T1 construct: transiently transfected with plasmid DNA containing polynucleotide encoding; expressed in transfected cells; host or cells: HEK293T (ATCC CRL-11268), transient
T1 sequence (Q9ERZ8 whole entry): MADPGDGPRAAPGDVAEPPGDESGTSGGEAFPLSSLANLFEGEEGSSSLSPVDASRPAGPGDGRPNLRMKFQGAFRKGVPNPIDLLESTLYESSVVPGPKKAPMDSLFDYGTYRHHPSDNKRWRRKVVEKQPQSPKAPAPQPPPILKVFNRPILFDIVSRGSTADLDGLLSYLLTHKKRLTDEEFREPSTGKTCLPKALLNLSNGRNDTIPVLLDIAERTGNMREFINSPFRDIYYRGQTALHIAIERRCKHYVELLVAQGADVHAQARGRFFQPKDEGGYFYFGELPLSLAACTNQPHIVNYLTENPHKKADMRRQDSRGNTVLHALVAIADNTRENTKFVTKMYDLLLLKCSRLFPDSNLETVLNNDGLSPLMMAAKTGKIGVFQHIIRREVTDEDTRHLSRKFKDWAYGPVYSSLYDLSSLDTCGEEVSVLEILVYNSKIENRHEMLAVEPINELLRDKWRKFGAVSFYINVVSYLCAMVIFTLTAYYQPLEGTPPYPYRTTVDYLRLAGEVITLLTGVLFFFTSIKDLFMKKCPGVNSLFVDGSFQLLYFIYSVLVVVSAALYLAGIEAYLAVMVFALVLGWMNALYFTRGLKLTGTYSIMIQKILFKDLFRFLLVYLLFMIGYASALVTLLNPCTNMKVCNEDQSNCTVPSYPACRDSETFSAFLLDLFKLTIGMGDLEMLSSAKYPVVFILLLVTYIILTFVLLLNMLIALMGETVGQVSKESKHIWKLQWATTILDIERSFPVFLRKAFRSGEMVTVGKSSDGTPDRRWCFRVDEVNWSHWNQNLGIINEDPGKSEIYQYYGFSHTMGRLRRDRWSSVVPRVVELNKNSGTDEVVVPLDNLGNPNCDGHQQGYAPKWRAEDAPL
Protocol: (§1) HEK293T cell line (ATCC CRL-11268) was transiently transfected with plasmid DNA containing polynucleotide encoding […] (SEQ. ID. NO: 1), rTRPV2 (SEQ. ID. NO: 2), mTRPV3 (SEQ. ID. NO: 3), rTRPV4 (SEQ. ID. NO: 4), mTRPM8 (SEQ. ID. NO: 5) or mTRPA1 (SEQ. ID. NO: 6).
(§2) Particularly, the HEK293T cell line was transiently transfected with 3 μg/35 mm dish of rTRPV1, rTRPV2, mTRPV3, rTRPV4, mTRPM8 and mTRPA1 plasmid DNA, and 600 ng/well of pCDNA3 (Invitrogen Corp., USA; containing green fluorescent protein (GFP) cDNA) using Fugene6 (Roche Diagnostics, USA) according to manufacturer's instruction. The transformed cells were cultured in DMEM/F12 medium containing 10% FBS and 1% penicillin/streptomycin in a CO2 incubator for 24 hours. The cells were smeared on poly-L-lysine-coated glass coverslips, followed by further culture for 10-24 hours.
(§3) Particularly, the transfected cell line of Example <3-1> was loaded with Fluo-3AM (5 μM; Sigma Aldrich, USA) in the bath solution (140 mM NaCl, 5 mM KCl, 2 mM CaCl2, 1 mM MgCl2, 10 mM HEPES; adjusted to pH 7.4 with NaOH) containing 0.02% pluronic acid (Invitrogen, USA) at 37° C. for 1 hour. Calcium imaging was performed with LSM5 Pascal confocal microscope (Carl Zeiss, Germany), and time-lapse images (excitation 488 nm/emission 514 nm) were collected every 3 seconds using Carl Zeiss ratio tool software (Carl Zeiss, Germany). […]

mTRPA1 = target: T2, mTRPA1 (Mus musculus, UniProt Q8BLA8); experiment: Fluo-3 calcium imaging of TRPA1 transfected HEK293T cells; type: cell-based; conditions: 1 μM of FPP
T2 construct: transiently transfected with plasmid DNA containing polynucleotide encoding; expressed in transfected cells; host or cells: HEK293T (ATCC CRL-11268), transient
T2 sequence (Q8BLA8 whole entry): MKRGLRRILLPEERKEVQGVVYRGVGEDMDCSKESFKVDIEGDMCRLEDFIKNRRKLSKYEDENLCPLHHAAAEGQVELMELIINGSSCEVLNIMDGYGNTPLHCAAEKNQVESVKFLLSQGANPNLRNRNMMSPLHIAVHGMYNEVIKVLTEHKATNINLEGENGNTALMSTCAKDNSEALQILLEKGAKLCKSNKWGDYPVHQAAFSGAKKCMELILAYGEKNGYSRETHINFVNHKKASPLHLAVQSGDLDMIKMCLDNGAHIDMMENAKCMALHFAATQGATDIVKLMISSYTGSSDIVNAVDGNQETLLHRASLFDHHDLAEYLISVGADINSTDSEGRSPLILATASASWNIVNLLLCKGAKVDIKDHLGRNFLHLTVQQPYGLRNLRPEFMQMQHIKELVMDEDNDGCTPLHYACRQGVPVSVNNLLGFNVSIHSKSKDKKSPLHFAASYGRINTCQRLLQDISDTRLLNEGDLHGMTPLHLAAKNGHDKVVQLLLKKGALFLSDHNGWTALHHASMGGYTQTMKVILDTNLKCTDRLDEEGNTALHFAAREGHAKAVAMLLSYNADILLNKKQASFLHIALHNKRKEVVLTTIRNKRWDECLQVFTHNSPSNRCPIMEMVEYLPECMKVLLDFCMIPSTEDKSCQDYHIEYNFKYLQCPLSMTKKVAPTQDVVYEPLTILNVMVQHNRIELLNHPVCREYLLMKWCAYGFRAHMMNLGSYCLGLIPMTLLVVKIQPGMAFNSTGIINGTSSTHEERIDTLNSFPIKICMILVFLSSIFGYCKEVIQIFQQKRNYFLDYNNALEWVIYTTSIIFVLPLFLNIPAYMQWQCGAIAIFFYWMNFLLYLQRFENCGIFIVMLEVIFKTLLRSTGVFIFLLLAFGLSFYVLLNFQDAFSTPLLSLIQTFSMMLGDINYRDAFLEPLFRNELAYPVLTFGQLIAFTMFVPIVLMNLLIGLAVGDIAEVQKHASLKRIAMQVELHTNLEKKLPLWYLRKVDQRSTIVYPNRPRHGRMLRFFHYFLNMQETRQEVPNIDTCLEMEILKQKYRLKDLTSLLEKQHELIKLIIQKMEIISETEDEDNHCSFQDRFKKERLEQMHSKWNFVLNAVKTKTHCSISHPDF
Protocol: as §1, §2, §3

rTRPV2 = target: T3, rTRPV2 (Rattus norvegicus, UniProt Q9WUD2, A713V/L151P/T158I); experiment: Fluo-3 calcium imaging of TRPV2 transfected HEK293T cells; type: cell-based; conditions: 1 μM of FPP
T3 construct: transiently transfected with plasmid DNA containing polynucleotide encoding; expressed in transfected cells; host or cells: HEK293T (ATCC CRL-11268), transient
T3 sequence (Q9WUD2 1-761 L151P/T158I/A713V): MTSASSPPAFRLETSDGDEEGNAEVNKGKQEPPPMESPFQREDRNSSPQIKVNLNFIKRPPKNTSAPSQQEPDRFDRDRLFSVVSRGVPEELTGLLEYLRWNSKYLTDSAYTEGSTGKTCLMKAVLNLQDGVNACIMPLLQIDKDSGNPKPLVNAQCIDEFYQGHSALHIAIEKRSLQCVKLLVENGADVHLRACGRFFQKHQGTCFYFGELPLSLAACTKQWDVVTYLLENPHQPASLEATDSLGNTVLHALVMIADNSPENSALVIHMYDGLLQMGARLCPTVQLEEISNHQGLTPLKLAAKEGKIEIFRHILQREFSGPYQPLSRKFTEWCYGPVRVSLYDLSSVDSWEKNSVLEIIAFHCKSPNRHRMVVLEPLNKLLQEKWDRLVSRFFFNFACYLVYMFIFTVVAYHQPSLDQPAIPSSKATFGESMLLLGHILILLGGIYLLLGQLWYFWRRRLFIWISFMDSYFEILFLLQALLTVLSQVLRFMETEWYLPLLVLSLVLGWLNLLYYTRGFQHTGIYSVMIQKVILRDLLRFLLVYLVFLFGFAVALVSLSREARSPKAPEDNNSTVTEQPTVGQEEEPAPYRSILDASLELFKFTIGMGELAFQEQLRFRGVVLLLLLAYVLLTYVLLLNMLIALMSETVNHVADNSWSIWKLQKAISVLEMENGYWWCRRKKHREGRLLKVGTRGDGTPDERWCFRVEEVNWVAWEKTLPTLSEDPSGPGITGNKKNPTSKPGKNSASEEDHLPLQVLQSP
Protocol: as §1, §2, §3

rTRPV1 = target: T4, rTRPV1 (Rattus norvegicus, UniProt O35433); experiment: Fluo-3 calcium imaging of TRPV1 transfected HEK293T cells; type: cell-based; conditions: 1 μM of FPP
T4 construct: transiently transfected with plasmid DNA containing polynucleotide encoding; expressed in transfected cells; host or cells: HEK293T (ATCC CRL-11268), transient
T4 sequence (O35433 whole entry): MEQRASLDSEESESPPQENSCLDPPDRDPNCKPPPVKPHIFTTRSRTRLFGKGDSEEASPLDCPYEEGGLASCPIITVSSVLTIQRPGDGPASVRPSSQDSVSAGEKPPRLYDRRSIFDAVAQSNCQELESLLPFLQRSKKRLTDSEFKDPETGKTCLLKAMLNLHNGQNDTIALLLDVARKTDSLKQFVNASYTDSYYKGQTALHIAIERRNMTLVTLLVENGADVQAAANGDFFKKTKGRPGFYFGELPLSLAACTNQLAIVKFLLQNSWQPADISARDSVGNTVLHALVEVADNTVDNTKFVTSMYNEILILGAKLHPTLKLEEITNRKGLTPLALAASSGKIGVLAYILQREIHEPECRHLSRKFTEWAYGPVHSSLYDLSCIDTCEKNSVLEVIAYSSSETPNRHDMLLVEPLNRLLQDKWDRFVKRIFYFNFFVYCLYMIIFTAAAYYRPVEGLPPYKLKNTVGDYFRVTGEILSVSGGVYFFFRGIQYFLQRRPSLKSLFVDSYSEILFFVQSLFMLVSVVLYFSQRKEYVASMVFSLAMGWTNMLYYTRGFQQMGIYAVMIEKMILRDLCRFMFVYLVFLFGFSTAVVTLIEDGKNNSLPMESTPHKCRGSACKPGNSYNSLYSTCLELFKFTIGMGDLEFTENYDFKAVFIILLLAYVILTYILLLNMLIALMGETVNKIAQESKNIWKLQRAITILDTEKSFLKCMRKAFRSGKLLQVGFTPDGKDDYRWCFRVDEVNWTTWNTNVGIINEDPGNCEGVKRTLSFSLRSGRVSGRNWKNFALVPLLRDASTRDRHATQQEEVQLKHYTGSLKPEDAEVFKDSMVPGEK
Protocol: as §1, §2, §3

mTRPV3 [1] = target: T5, mTRPV3 (Mus musculus, UniProt Q8K424, A9V); experiment: Fluo-3 calcium imaging of mTRPV3 transfected HEK293T cells; type: cell-based
T5 construct: transiently transfected with plasmid DNA containing polynucleotide encoding; expressed in transfected cells; host or cells: HEK293T (ATCC CRL-11268), transient
T5 sequence (Q8K424 1-791 A9V): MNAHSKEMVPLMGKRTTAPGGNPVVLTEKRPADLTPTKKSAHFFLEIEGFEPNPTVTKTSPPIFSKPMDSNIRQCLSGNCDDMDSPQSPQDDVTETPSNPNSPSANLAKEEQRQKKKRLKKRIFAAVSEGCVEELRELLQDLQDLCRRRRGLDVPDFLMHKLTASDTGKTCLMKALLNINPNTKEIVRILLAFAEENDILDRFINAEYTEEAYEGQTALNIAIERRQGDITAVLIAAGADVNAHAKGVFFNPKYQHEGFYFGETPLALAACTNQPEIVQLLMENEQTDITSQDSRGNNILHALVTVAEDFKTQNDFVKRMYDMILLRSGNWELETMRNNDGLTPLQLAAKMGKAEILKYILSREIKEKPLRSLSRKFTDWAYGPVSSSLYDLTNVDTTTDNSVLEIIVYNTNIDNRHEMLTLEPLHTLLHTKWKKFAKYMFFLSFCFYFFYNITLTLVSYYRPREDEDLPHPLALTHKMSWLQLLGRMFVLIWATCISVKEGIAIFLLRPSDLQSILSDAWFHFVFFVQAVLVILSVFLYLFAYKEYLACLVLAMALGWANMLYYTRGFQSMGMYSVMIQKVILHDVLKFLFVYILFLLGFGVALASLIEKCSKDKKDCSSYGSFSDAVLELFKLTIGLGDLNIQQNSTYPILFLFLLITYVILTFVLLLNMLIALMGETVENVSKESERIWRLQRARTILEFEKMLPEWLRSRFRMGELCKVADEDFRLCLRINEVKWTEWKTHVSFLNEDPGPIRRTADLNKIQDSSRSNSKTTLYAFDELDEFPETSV
Protocol: as §1, §2
The mTRPV3 transfected cell line prepared in Example 1 was treated with FPP at different concentrations from 0.1 to 1,000 nM.
Particularly, the transfected cell line of Example <3-1> was loaded with Fluo-3AM (5 μM; Sigma Aldrich, USA) in the bath solution (140 mM NaCl, 5 mM KCl, 2 mM CaCl2, 1 mM MgCl2, 10 mM HEPES; adjusted to pH 7.4 with NaOH) containing 0.02% pluronic acid (Invitrogen, USA) at 37° C. for 1 hour. Calcium imaging was performed with LSM5 Pascal confocal microscope (Carl Zeiss, Germany), and time-lapse images (excitation 488 nm/emission 514 nm) were collected every 3 seconds using Carl Zeiss ratio tool software (Carl Zeiss, Germany). Mean value curve of calcium influx response (n=12−62 per each experimental values) was made by Hill plot.
The TRPA1, TRPV1, TRPV2, TRPV3, TRPV4 and TRPM8 transfected cell lines prepared by the method of Example 1 and the non-transfected HEK cell line (control group) were treated with 1 μM of FPP. Calcium imaging was performed with the transfected cell lines treated as the above by the same manner as described in Example <3-2>.
The TRPA1, TRPV1, TRPV2, TRPV3, TRPV4 and TRPM8 transfected cell lines prepared by the method of Example 1 and the non-transfected HEK cell line (control group) were treated with 10 μM of IPP (isopentenyl pyrophosphate: Biomol, USA) and 10 μM of GGPP (geranyl-geranyl pyrophosphate: Biomol, USA), the TRPV3 regulator analogues. Calcium imaging was performed with the transfected cell lines treated as the above by the same manner as described in Example <3-2>.

mTRPM8 = target: T6, mTRPM8 (Mus musculus, UniProt Q8R4D5); experiment: Fluo-3 calcium imaging of TRPM8 transfected HEK293T cells; type: cell-based; conditions: 1 μM of FPP
T6 construct: transiently transfected with plasmid DNA containing polynucleotide encoding; expressed in transfected cells; host or cells: HEK293T (ATCC CRL-11268), transient
T6 sequence (Q8R4D5 whole entry): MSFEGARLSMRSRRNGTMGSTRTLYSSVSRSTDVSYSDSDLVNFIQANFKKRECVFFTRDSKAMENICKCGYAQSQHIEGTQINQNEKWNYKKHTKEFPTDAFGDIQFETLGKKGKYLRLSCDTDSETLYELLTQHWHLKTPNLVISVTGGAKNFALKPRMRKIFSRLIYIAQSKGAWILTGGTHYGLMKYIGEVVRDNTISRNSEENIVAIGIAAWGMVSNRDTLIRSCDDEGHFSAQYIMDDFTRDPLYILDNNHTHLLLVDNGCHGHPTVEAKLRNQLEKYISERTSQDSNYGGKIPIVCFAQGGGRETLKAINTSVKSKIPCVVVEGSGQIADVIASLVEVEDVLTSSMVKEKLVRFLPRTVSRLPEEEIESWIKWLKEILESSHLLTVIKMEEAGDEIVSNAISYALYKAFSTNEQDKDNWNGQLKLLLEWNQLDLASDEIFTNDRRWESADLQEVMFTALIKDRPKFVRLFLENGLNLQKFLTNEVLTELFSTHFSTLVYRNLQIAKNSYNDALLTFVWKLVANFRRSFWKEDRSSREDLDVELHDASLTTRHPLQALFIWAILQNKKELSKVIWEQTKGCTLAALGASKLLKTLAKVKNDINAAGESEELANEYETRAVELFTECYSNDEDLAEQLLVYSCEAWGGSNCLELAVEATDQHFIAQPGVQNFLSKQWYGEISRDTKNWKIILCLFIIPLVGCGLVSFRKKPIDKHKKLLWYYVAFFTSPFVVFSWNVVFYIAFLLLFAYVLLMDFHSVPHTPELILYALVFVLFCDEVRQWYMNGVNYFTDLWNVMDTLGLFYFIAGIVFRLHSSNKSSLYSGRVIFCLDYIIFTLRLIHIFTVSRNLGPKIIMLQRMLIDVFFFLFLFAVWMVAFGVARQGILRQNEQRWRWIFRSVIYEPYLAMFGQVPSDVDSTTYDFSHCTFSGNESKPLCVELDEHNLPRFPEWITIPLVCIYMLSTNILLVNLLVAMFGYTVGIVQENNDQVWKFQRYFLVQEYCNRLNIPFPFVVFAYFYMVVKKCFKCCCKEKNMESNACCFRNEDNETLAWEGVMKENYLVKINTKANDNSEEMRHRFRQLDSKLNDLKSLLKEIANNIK
Protocol: as §1, §2, §3

HaCat skin cells = experiment: Artificial wound recovery: migration and proliferation of HaCat skin cells; type: cell-based; conditions: 1 μM of FPP, 12 hours after the treatment
Protocol: HaCat (ATCC, CCL-228) cell line was seeded in a 24-well plate. The present inventors drew lines 1 mm deep on the well fully filled with the cells to make artificial wound. The wounded cells were treated with FPP (1 μM), camphor (4 mM), RR (20 μM) and GGPP (10 μM) respectively and incubated in a CO2 incubator for 12 hours. The control group was not-treated. The width of recovered wound was measured under microscope and compared with that at the beginning, which was presented as wound recovery rate. All the experiments were performed on DMEM/FBS. Floating cells, which means dead cells, after making wound, were eliminated by using PBS to eliminate variables caused by dead cells. The cells were observed under microscope (×40, IX 71 OLYMPUS), and distance was measured by using image analysis program (Meta-flour 7.1, Molecular Devices, USA).

mTRPV3 [2] = target: T5, mTRPV3; experiment: Whole-cell voltage-clamp recording of mTRPV3 transfected HEK293T cells; type: cell-based; conditions: for TRPV3 activity (whole cell current): mTRPV3 transfected HEK293T cells
Protocol: as §1, §2
The mTRPV3 transfected cell line prepared in Example 1 was treated with 1 μM of FPP (Biomol, USA), 4 mM of camphor (Sigma-Aldrich, USA) and ruthenium red (RR; Sigma-Aldrich, USA) at a required time intervals as shown in FIG. 1a. Stock solutions were made using water or DMSO, and were diluted with test solutions before use.
Whole-cell voltage-clamp recording, one of the patch-clamp techniques, was performed with the transfected cell line of Example <1-1> according to the method of Bandel M, et al. (Neuron 41:849-857, 2004).
Particularly, the extracellular solution (140 mM NaCl, 5 mM KCl, 2 mM CaCl2, 1 mM MgCl2, 10 mM HEPES; titrated to pH 7.4 with NaOH) and the pipette solution (140 mM CsCl, 5 mM EGTA, 10 mM HEPES, 2.0 mM MgATP, 0.2 mM NaGTP; titrated to pH 7.2 with CSOH) were used. The potential was held at −60 mV for 250 ms, voltage-ramp pulsed from −80 mV to +80 mV for […] and returned to −60 mV for 250 ms, which was repeated without intersweep. This experiment was repeated 5 times.

CC(C)=CCCC(C)=CCCC(C)=CCOP(=O)(O)OP(=O)(O)O [FPP, 3,7,11-trimethyldodeca-2,6,10-trien-1-yl trihydrogen diphosphate]
hind paw licking/flicking behavior (pain) (mice): significantly increased licking/flicking behavior
TRPV4 activation (calcium imaging) (rTRPV4): did not exhibited activity
TRPA1 activation (calcium imaging) (mTRPA1): did not exhibited activity
TRPV2 activation (calcium imaging) (rTRPV2): did not exhibited activity
TRPV1 activation (calcium imaging) (rTRPV1): did not exhibited activity
TRPV3 activation (calcium imaging) (mTRPV3 [1]; 1 μM of FPP): activated
maximal effective dose (mTRPV3 [1]; calcium influx response, FPP 0.1 to 1,000 nM): approximately 1 μM
EC50 (mTRPV3 [1]; calcium influx response, FPP 0.1 to 1,000 nM, Hill plot, read-out: EC50 (effective concentration 50%) to TRPV3): 31.9 nM
TRPM8 activation (calcium imaging) (mTRPM8): did not exhibited activity
migration and proliferation of HaCat skin cells (wound recovery rate) (HaCat skin cells): significantly inhibited
TRPV3 activity (whole cell current) (mTRPV3 [2]; 1 μM of FPP, +60 mV and −60 mV): significant increase of TRPV3 activity

CC(C)=CCC/C(C)=C/CC/C(C)=C/CC/C(C)=C/COP(=O)(O)OP(=O)(O)O [GGPP, geranyl-geranyl pyrophosphate, reference compound]
TRPV3 activation (calcium imaging) (mTRPV3 [1]; 10 μM of analogue): did not induce TRPV3 activation

CC12CCC(CC1=O)C2(C)C (centres unmarked) [camphor]
TRPV3 activity (whole cell current) (mTRPV3 [2]; camphor 4 mM): the activity was not so much increased

N.N.N.N.N.N.N.N.N.N.N.N.N.N.[Cl-].[Cl-].[Cl-].[Cl-].[Cl-].[Cl-].[O-2].[O-2].[Ru+3].[Ru+3].[Ru+4] [ruthenium red]
TRPV3 activity (whole cell current) on treatment with the TRP ion channel blocker (mTRPV3 [2]; ruthenium red applied to the activated mTRPV3 transfected cells): activity was reduced
